Measured values as given in patent EP0138995B1, “REGULATION OF ENZYMES WHICH UTILIZE TETRAHYDROBIOPTERIN OR TETRAHYDROFOLATE COFACTORS WITH 6, 6-DISUBSTITUTED-TETRAHYDROPTERIDINES” (South Alabama Medical Science Foundation, priority 1983, dated 1984).
≈ marks a conversion by molar mass, not a printed value. Where two headings read alike, the source gives them in different places. One block for each compound: values may come before it.

How the values were obtained:
[1] = Near-saturation concentration at neutral pH; format: physicochemical; conditions: organic solvent or mixture, in 0.5 M 2-mercaptoethanol, room temperature, read-out: concentration of an almost saturated solution
Experimental: 2-Amino-4-hydroxy-6-methyl-6-phenyl-5,6,7,8-tetrahydropteridine ([…]): The above dry quinoid-dihydropteridine was reduced in near quantitative yield by addition of 0.5 M 2-mercaptoethanol at room temperature, such that the final concentration of product was approximately 10 mM (an almost saturated solution at neutral pH). To obtain the pure dihydrochloride salt, this solution was rotary evaporated to an oil which was dissolved in 2M HCl in methanol and 4 volumes of ethyl ether added, and the precipitate collected by centrifugation and washed twice by resuspension in fresh ethyl ether, followed by centrifugation.

[2] = test system: striatal tyrosine hydroxylase; conditions: cited from earlier work
[3] = test system: phenylalanine hydroxylase; conditions: cited from earlier work
[4] = Spectrophotometric pKa determination of quinoid dihydropterin; format: physicochemical; conditions: sodium succinate buffer; transition between neutral and monocationic species; sodium succinate buffers, I=0.01, 25°C
Experimental: pKa. The pKa for the transition between the neutral and monocationic species of q-6,6-Me₂PH₂ was determined spectrophotometrically. A concentrated stock solution of quinoid, free of elemental bromine, in n-propanol was diluted to 0.1 mM into a series of sodium succinate buffers at constant ionic strength (I=0.01). Spectra, background corrected for each buffer individually, were acquired on a Perkin-Elmer 552 spectrophotometer thermostated to 25°C.

[5] = Stability (decay) of quinoid-6,6-Me2PH2 monitored spectrophotometrically; format: physicochemical
Experimental: Stability. The decay of q-6,6-Me₂PH₂ in a variety of environments was monitored spectrophotometrically. […] In water, a plateau of highest stability is observed near neutral pH. At pH 6.8, solutions kept on ice have a half-life greater than 100 hours. […] Loss of quinoid is somewhat increased in acid and greatly accelerated in base. […] This process is not affected by the presence of oxygen.

[6] = Non-enzymatic reduction of quinoid-6,6-Me2PH2 by physiological reducing agents; format: physicochemical; conditions: 0.1 M Tris·HCl, pH 7.4 at 37°
Experimental: Non-Enzymatic Reduction of Quinoid-6,6-Me₂PH₂ under Physiological Conditions. Aromatic amino acid hydroxylase cofactor analogs which are relatively stable in the quinoid-dihydro form may have therapeutic potential for treatment of dihydropteridine reductase deficiency. Thus, it was of interest to determine the rate at which quinoid is reduced to the tetrahydropterin by various physiological reducing agents. Rates were measured in 0.1 M Tris·HCl, pH 7.4 at 37°, from the decrease in absorbance at 340 nm. A reaction first order in each component was observed. With NADH, NADPH and absorbic acid, the rate of reduction (k=660 M⁻¹min⁻¹) was the same. The rate with cysteine was about four times slower (k=160 M⁻¹min⁻¹).

[7] = target: T1, phenylalanine hydroxylase (Rattus norvegicus, UniProt P04176); experiment: Inhibition of phenylalanine hydroxylase by dihydropterins; format: biochemical; conditions: concentrations up to 0.4 mM; 6,6-Me2PH4 as cofactor 0.05-0.3 mM
T1 construct: from tissue
T1 sequence (P04176 1-453): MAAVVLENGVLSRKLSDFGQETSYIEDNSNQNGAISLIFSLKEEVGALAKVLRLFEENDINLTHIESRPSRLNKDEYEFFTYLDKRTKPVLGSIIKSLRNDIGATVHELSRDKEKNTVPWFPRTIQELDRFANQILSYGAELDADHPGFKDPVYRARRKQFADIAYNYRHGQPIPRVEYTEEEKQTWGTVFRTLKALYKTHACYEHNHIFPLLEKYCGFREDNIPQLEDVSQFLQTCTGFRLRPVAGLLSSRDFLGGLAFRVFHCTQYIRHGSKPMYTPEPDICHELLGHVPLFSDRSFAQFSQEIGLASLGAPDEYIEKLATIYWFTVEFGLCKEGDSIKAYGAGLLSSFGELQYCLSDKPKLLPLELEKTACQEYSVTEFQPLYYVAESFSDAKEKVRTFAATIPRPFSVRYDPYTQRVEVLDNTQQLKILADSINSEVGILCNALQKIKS
Experimental: Measurements were made under standard assay conditions with cofactor concentration varied between 0.05 and 0.3 mM. Stock solutions of 6,6-Me₂PH₂ were in 0.1 M assay buffer.
Standard assay conditions, with 6-MePH₄ as cofactor over a range of 0.05 mM to 0.3 mM, were employed.

[8] = target: T2, Beef Liver Dihydropteridine Reductase (Bos taurus, UniProt Q3T0Z7); experiment: Quinoid dihydropterin as substrate for dihydropteridine reductase (beef liver); format: biochemical
T2 construct: from tissue; host or cells: beef liver
T2 sequence (Q3T0Z7 1-242): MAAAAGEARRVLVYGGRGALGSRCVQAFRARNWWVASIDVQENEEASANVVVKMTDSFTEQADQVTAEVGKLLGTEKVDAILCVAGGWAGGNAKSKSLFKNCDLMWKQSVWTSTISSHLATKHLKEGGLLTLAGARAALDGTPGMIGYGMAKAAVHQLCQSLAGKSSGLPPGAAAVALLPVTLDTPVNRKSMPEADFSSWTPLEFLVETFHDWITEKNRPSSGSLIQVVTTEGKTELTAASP
Experimental: (§1) The quinoid was generated from 6,6-Me₂PH₄, as outlined previously. […] Peroxidase (6 units/ml final volume) was temperature equilibrated in 0.1 M Tris·HCl, pH 7.4, at 27° for 5 minutes. H₂O₂ (1.2 mM final concentration) was then added, followed by 6,6-Me₂PH₄. […] At 5 minutes, 6,6-Me₂PH₄ was introduced and monitored at 340 nm. […] Reaction was then initiated with dihydropteridine reductase (0.01 units/ml). Rates were calculated from the enzyme dependent decrease in O.D. at 340 nm, using an extinction coefficient of 9.8 for the chemically synthesized substrate and 6.2 for the peroxidase- and phenylalanine-hydroxylase-containing reactions in which the pterin is maintained in the quinoid form.

[9] = target: T3, Sheep Liver Dihydropteridine Reductase (Ovis aries, UniProt A0ACI6QPJ5); experiment: Quinoid dihydropterin as substrate for dihydropteridine reductase (sheep liver); format: biochemical
T3 sequence (A0ACI6QPJ5 46-254): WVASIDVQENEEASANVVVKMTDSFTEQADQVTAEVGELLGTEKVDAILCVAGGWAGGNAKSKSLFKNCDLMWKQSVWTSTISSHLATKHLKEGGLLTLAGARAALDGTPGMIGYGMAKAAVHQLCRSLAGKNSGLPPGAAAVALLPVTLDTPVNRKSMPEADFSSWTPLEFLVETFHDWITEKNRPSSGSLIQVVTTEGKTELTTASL
Experimental: as §1, with “6,6-Me₂PH₄. Conversion to q-6,6-Me₂PH₂, monitored at 340 nm, was complete within a few seconds. • (iii) Generation by phenylalanine hydroxylase:” for “6,6-Me₂PH₄.”, “nm. Conversion of 6,6-Me₂PH₄ to quinoid dihydropterin was complete in 1-7 minutes, depending on the concentration.” for “nm.”, “form. […] This Km was obtained regardless of the method of generation of the quinoid dihydropterin. The Vmax's were also the same for the dihydropteridine reductase catalyzed reduction of quinoid generated by any of the three methods (Table VI). Thus, the quinoid products of each procedure appear to behave equally.” for “form.”

[10] = substrate produced by Bromine oxidation
[11] = substrate produced by Phe hydroxylase + phe

- solubility [1]: ~10 mM (≈ 2570 µg/mL)
SMILES: CC1(c2ccccc2)CNc2nc(N)nc(O)c2N1 (centres unmarked) [6-Phenyl-6-Methyl-PH4, 2-Amino-4-hydroxy-6-methyl-6-phenyl-5,6,7,8-tetrahydropteridine]

SMILES: Nc1nc2c(c(=O)[nH]1)NC(c1ccccc1)CN2 (centres unmarked) [Compound 6-Phenyl-PH4, 6-phenyltetrahydropterin]
- increase of Vmax compared to tetrahydrobiopterin [2]: 10 fold
- decrease of Vmax compared to tetrahydrobiopterin [3]: 10 fold

- pKa [4]: 5.15 ± 0.05
- half-life ([5]; 0.1 m tris-hcl, air, pH 7.4, pH 7.4 (0.1 M Tris·HCl), 27°C, air, read-out: t 1/2 (converted)): 240 min
- half-life ([5]; 0.1 m tris-hcl, air, pH 7.4, pH 7.4 (0.1 M Tris·HCl), 37°C, air, read-out: t 1/2 (converted)): 75 min
- half-life ([5]; 0.1 m tris-hcl, argon, pH 7.4, pH 7.4 (0.1 M Tris·HCl), 37°C, argon, read-out: t 1/2 (converted)): 75 min
- half-life ([5]; 1n hcl, air, pH 0, pH 0 (1N HCl), 37°C, air, read-out: t 1/2 (converted)): 45 min
- half-life ([5]; 1n hcl, argon, pH 0, pH 0 (1N HCl), 37°C, argon, read-out: t 1/2 (converted)): 45 min
- half-life ([5]; aerated (CH3)2SO at -80°C): several weeks
- half-life ([5]; dmso, aerated (CH3)2SO at ambient temperature, read-out: half-life (converted)): ~2880 min
- t 1/2 ([5]; pH 6.8 (Tris-MES 0.1M), 0°C (on ice), air): 104 h
- storage stability of the dry powder ([5]; stored desiccated for several months at -80°C): no detectable change
- half-life ([5]; tris-mes 0.1 m, air, pH 6.8, pH 6.8 (Tris-MES 0.1M), 0°C (on ice), air, read-out: t 1/2 (converted)): > 6000 min
- inhibition of purified phenylalanine hydroxylase [7]: No inhibition
- Relative Vmax Beef [8, 10]: 1
- Relative Vmax Beef ([8]; substrate produced by Peroxidase + H2O2): 1
- Relative Vmax Beef [8, 11]: 1
- Relative Vmax Sheep [9, 10]: 1
- Relative Vmax Sheep [9, 11]: 1
SMILES: CC1(C)CNC2=NC(N)=NC(=O)C2=N1 [Quinoid-6,6-Me2PH2, 2-Amino-6,6-dimethyl-4-hydroxyquinoid-dihydropteridine]
- stability relative to the quinoid forms of 6-methyldihydropterin or dihydrobiopterin [5]: one to two orders of magnitude more stable
- rearrangement to a 7,8-dihydropterin ([5]; in contrast to quinoid dihydropterin monosubstituted at C6): does not appear to rearrange to a 7,8-dihydropterin
- rate of reduction (k) ([6]; with NADH): 660 M⁻¹ min⁻¹
- rate of reduction (k) ([6]; with NADPH): 660 M⁻¹ min⁻¹
- rate of reduction (k) ([6]; with absorbic acid): 660 M⁻¹ min⁻¹
- rate of reduction (k) ([6]; with cysteine): 160 M⁻¹ min⁻¹
